For this experiment, the system named is P388 leukemia ip, CD2F1 mice, survival T/C. The experiment in a line: NCI In Vivo Anticancer Drug Screen. Data for tumor model P388 Leukemia (intraperitoneal) in CD2F1 (CDF1) mice. Conditions: endpoint: median survival time, higher = longer survival. In short, it runs like this:
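Mice carrying the transplanted tumor received test compound or vehicle. Survival was recorded in each group, and the value is the treated-group measurement divided by that of the vehicle-treated control group.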

Where [1] appears, read: dose: 100.0 mg/kg/injection, schedule: Q01DX009 (ip), vehicle: saline with Tween-80.
Where [2] appears, read: dose: 25.0 mg/kg/injection, schedule: Q01DX009 (ip), vehicle: saline with Tween-80.
Setting [3] is: dose: 50.0 mg/kg/injection, schedule: Q01DX009 (ip), vehicle: saline with Tween-80.
Where [4] appears, read: dose: 100.0 mg/kg/injection, schedule: Q01DX009 (ip), vehicle: saline.
Where [5] appears, read: dose: 6.25 mg/kg/injection, schedule: Q01DX005 (ip), vehicle: Klucel (hydroxypropylcellulose) (HPC).
Setting [6] is: dose: 12.5 mg/kg/injection, schedule: Q01DX005 (ip), vehicle: Klucel (hydroxypropylcellulose) (HPC).
Where [7] appears, read: dose: 25.0 mg/kg/injection, schedule: Q01DX005 (ip), vehicle: Klucel (hydroxypropylcellulose) (HPC).
Setting [8] is: dose: 25.0 mg/kg/injection, schedule: Q01DX009 (ip), vehicle: distilled water + Tween-80.
Where [9] appears, read: dose: 100.0 mg/kg/injection, schedule: Q04DX003 (ip), vehicle: saline.
The mark [10] stands for this setting: dose: 200.0 mg/kg/injection, schedule: Q04DX003 (ip), vehicle: saline.
[11] abbreviates: dose: 400.0 mg/kg/injection, schedule: Q04DX003 (ip), vehicle: saline.
Where [12] appears, read: dose: 50.0 mg/kg/injection, schedule: Q01DX005 (ip), vehicle: saline with Tween-80.
The mark [13] stands for this setting: dose: 60.0 mg/kg/injection, schedule: Q01DX005 (ip), vehicle: saline with Tween-80.
The mark [14] stands for this setting: dose: 120.0 mg/kg/injection, schedule: Q01DX005 (ip), vehicle: saline with Tween-80.
[15] abbreviates: dose: 240.0 mg/kg/injection, schedule: Q01DX005 (ip), vehicle: saline with Tween-80.
Where [16] appears, read: dose: 200.0 mg/kg/injection, schedule: Q01DX009 (ip), vehicle: saline.
The mark [17] stands for this setting: dose: 60.0 mg/kg/injection, schedule: Q01DX005 (ip), vehicle: Klucel (hydroxypropylcellulose) (HPC).
Where [18] appears, read: dose: 120.0 mg/kg/injection, schedule: Q01DX005 (ip), vehicle: Klucel (hydroxypropylcellulose) (HPC).

Molecules are shown by their SMILES. Values joined by “and” are separate entries in the source; they are usually repeats but may differ in a detail not shown here. Equal entries are not always repeated. Toxic doses and inconclusive results are not listed.

Regarding `Nc1nc(Br)c2[nH]cnc2n1`, the T/C is 110 % of control under setting [1]; 118 % of control (dose: 100.0 mg/kg/injection, schedule: Q04DX003 (ip), vehicle: saline with Tween-80); 120 % of control (dose: 200.0 mg/kg/injection, schedule: Q01DX009 (ip), vehicle: saline with Tween-80); 113 % of control (dose: 200.0 mg/kg/injection, schedule: Q04DX003 (ip), vehicle: saline with Tween-80); 90 % of control (dose: 400.0 mg/kg/injection, schedule: Q01DX009 (ip), vehicle: saline with Tween-80); 109 % of control (dose: 400.0 mg/kg/injection, schedule: Q04DX003 (ip), vehicle: saline with Tween-80).

As to `O=C(CC(=O)N1CCN(c2ccccc2)CC1)N1CCN(c2ccccc2)CC1`, the T/C runs as follows: under setting [2], 95 % of control; under setting [3], 97 % of control; under setting [1], 98 % of control; under setting [4], 93 % of control.

Turning to `O=C1c2c(Cl)c(Cl)c(Cl)c(Cl)c2C(=O)C2(Cl)CC=CCC12Cl` (configuration not stated), the T/C under setting [5] was 101 % of control, the T/C under setting [6] is 95 % of control and the T/C under setting [7] was 101 % of control.

On to `O=C(O)/C=N/NP(=O)(Oc1ccccc1)Oc1ccccc1`, for which the T/C under setting [8] is 99 % of control; the T/C (dose: 50.0 mg/kg/injection, schedule: Q01DX009 (ip), vehicle: distilled water + Tween-80) was 100 % of control and 94 % of control; the T/C (dose: 100.0 mg/kg/injection, schedule: Q01DX009 (ip), vehicle: distilled water + Tween-80) was 100 % of control and 95 % of control; the T/C (dose: 200.0 mg/kg/injection, schedule: Q01DX009 (ip), vehicle: distilled water + Tween-80) is 100 % of control and 97 % of control; the T/C (dose: 400.0 mg/kg/injection, schedule: Q01DX009 (ip), vehicle: distilled water + Tween-80) was 100 % of control and 109 % of control.

On to `S=C(Nc1ccc(I)cc1)SCc1ccc(Cl)cc1`, for which the T/C reads like this: (dose: 50.0 mg/kg/injection, schedule: Q01DX009 (ip), vehicle: suspension in saline) 104 % of control; (dose: 100.0 mg/kg/injection, schedule: Q01DX009 (ip), vehicle: suspension in saline) 111 % of control; (dose: 200.0 mg/kg/injection, schedule: Q01DX009 (ip), vehicle: suspension in saline) 119 % of control.

On to `O=C1OC(=O)C2C3C=CC(C4C=C(C5CC5)C43)C12` (configuration not stated), for which the T/C under setting [9] is 102 % of control, the T/C under setting [10] is 107 % of control and the T/C under setting [11] is 111 % of control.

Consider `COc1cc(NCCCCCNCC(C)(C)C)c2ncccc2c1`, for which the T/C is 109 % of control (dose: 12.5 mg/kg/injection, schedule: Q01DX005 (ip), vehicle: saline with Tween-80); 107 % of control (dose: 25.0 mg/kg/injection, schedule: Q01DX005 (ip), vehicle: saline with Tween-80); 91 % of control and 93 % of control under setting [12].

In the case of `C=C1C(=O)OC2/C=C(\CO)C(OC(C)=O)CC(O)/C(C)=C/C(OC(=O)C(C)CC)C12` (configuration not stated), the T/C by setting is: (dose: 6.25 mg/kg/injection, schedule: Q01DX009 (ip), vehicle: Klucel (hydroxypropylcellulose) (HPC)) 111 % of control; (dose: 12.5 mg/kg/injection, schedule: Q01DX009 (ip), vehicle: Klucel (hydroxypropylcellulose) (HPC)) 119 % of control; (dose: 100.0 mg/kg/injection, schedule: Q01DX009 (ip), vehicle: Klucel (hydroxypropylcellulose) (HPC)) 121 % of control.

`CCOC(=O)c1ccc(N=C(C2=C(O)c3ccccc3C2=O)c2ccccc2)cc1`: the T/C (dose: 25.0 mg/kg/injection, schedule: Q04DX002 (ip), vehicle: saline with Tween-80) was 92 % of control; the T/C (dose: 50.0 mg/kg/injection, schedule: Q04DX002 (ip), vehicle: saline with Tween-80) was 101 % of control; the T/C (dose: 100.0 mg/kg/injection, schedule: Q04DX002 (ip), vehicle: saline with Tween-80) was 95 % of control.

Turning to `COc1cc(C2c3cc4c(cc3OC(C)(O)C2C(C)=O)OCO4)cc(OC)c1OC` (configuration not stated), the T/C is, setting by setting: under setting [13], 87 % of control; under setting [14], 94 % of control; under setting [15], 100 % of control.

With `CC(=O)OCc1c(COC(C)=O)c(-c2ccc(Cl)cc2)n2c1CCC2`, the T/C (dose: 50.0 mg/kg/injection, schedule: Q01DX009 (ip), vehicle: Klucel (hydroxypropylcellulose) (HPC)) was 118 % of control.

As to `O=C1CSCC(=O)OCCOCCOCCOCCO1`, the T/C reads like this: under setting [9], 100 % of control; under setting [10], 101 % of control; under setting [11], 100 % of control.

Regarding `CC1=NN(c2cc(Cl)c(S(=O)(=O)O)cc2Cl)C(=O)C1N=Nc1ccc(S(=O)(=O)O)cc1` (configuration not stated), the T/C is, setting by setting: (dose: 50.0 mg/kg/injection, schedule: Q01DX009 (ip), vehicle: saline) 103 % of control; under setting [4], 100 % of control; under setting [16], 99 % of control.

For the molecule `COC(=O)c1c2cc(C(C)(C)C)cc-2c(N(C)C)nc(N(C)C)c1C(=O)OC`, the T/C under setting [17] was 95 % of control and the T/C under setting [18] is 95 % of control.

On to `COc1cc(C(CC#N)CC#N)cc(OC)c1OC`, for which the T/C by setting is: under setting [12], 96 % of control; (dose: 100.0 mg/kg/injection, schedule: Q01DX005 (ip), vehicle: saline with Tween-80) 99 % of control; (dose: 200.0 mg/kg/injection, schedule: Q01DX005 (ip), vehicle: saline with Tween-80) 97 % of control.

`Cc1c(-c2ccccc2)[nH]c2cc3c(cc12)Oc1ccccc1O3`: the T/C was 101 % of control (dose: 17.5 mg/kg/injection, schedule: Q01DX009 (ip), vehicle: Klucel (hydroxypropylcellulose) (HPC)); 106 % of control (dose: 35.0 mg/kg/injection, schedule: Q01DX009 (ip), vehicle: Klucel (hydroxypropylcellulose) (HPC)); 105 % of control (dose: 70.0 mg/kg/injection, schedule: Q01DX009 (ip), vehicle: Klucel (hydroxypropylcellulose) (HPC)).

For `CCOC(=O)C1C(c2ccc(OC)cc2)c2cc3c(cc2OC1(C)N1CCCC1)OCO3` (configuration not stated), the T/C under setting [17] is 98 % of control; the T/C under setting [18] is 96 % of control; the T/C (dose: 240.0 mg/kg/injection, schedule: Q01DX005 (ip), vehicle: Klucel (hydroxypropylcellulose) (HPC)) is 93 % of control.

Turning to `Nc1nnc2nc(C(C(=O)c3ccccc3Cl)c3nc4nnc(N)n4[nH]c3=O)c(=O)[nH]n12`, the T/C by setting is: under setting [13], 101 % of control; under setting [14], 98 % of control; under setting [15], 99 % of control.

For `O=S(=O)(O)c1cnc2nccn2c1`, the T/C runs as follows: (dose: 50.0 mg/kg/injection, schedule: Q04DX003 (ip), vehicle: suspension in saline) 99 % of control; (dose: 100.0 mg/kg/injection, schedule: Q04DX003 (ip), vehicle: suspension in saline) 110 % of control; (dose: 200.0 mg/kg/injection, schedule: Q04DX003 (ip), vehicle: suspension in saline) 105 % of control.

For `Cc1ccc(-c2c3c(c(-c4ccc(C)cc4)c(-c4ccccc4)c2-c2ccccc2)-c2ccccc2C3)cc1`, the T/C reads like this: (dose: 12.5 mg/kg/injection, schedule: Q01DX009 (ip), vehicle: saline with Tween-80) 98 % of control; under setting [2], 98 % of control; under setting [3], 99 % of control and 89 % of control.

Take `Nc1cccc(=O)[nH]1`: the T/C is 95 % of control under setting [4]; 109 % of control under setting [16]; 113 % of control and 123 % of control (dose: 400.0 mg/kg/injection, schedule: Q01DX009 (ip), vehicle: saline).

Turning to `Cc1c(-c2ccc(C3CCCCC3)cc2)nc2ccc(F)cc2c1C(=O)O`, the T/C reads like this: (dose: 3.12 mg/kg/injection, schedule: Q01DX005 (ip), vehicle: Klucel (hydroxypropylcellulose) (HPC)) 104 % of control; under setting [5], 99 % of control; under setting [6], 110 % of control; under setting [7], 99 % of control.

As to `COc1ccc2c(c1)CCn1c(C)c(COC(=O)NC(C)C)c(COC(=O)NC(C)C)c1-2`, the T/C by setting is: (dose: 12.5 mg/kg/injection, schedule: Q01DX009 (ip), vehicle: distilled water + Tween-80) 153 % of control and 160 % of control; under setting [8], 153 % of control and 164 % of control.
